According to PubChem BioAssay (NCI):
Several values for one entry are separate records, joined by “and”; a condition that tells them apart may be missing. Equal entries are not always repeated.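 Tested at 5 concentrations; 48 h exposure; 96-well plates; endpoints linearly interpolated, else capped at highest concentration. The concentration for 50% growth inhibition is given as GI50. Definition used: TGI = concentration required for complete inhibition of growth.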

What was measured:
Assay in all cases: NCI-60 cell line screen, 48 h
HL-60(TB) leukemia = system: HL-60(TB) leukemia
SNB-75 CNS = system: SNB-75 CNS
786-0 renal = system: 786-0 renal
SNB-19 CNS = system: SNB-19 CNS
HCT-15 colon = system: HCT-15 colon
SF-539 CNS = system: SF-539 CNS
NCI-H460 lung = system: NCI-H460 lung
U251 CNS = system: U251 CNS
M14 melanoma = system: M14 melanoma
OVCAR-3 ovarian = system: OVCAR-3 ovarian

Row | SMILES | GI50 (HL-60(TB) leukemia) | TGI (HL-60(TB) leukemia) | GI50 (SNB-75 CNS) | TGI (SNB-75 CNS) | GI50 (786-0 renal) | TGI (786-0 renal) | GI50 (SNB-19 CNS) | TGI (SNB-19 CNS) | GI50 (HCT-15 colon) | TGI (HCT-15 colon) | GI50 (SF-539 CNS) | TGI (SF-539 CNS) | GI50 (NCI-H460 lung) | TGI (NCI-H460 lung) | GI50 (U251 CNS) | TGI (U251 CNS) | GI50 (M14 melanoma) | TGI (M14 melanoma) | GI50 (OVCAR-3 ovarian) | TGI (OVCAR-3 ovarian)
1 | Nc1ccccc1C#C/C=C\C#Cc1ccccc1 | 13.7 µM | > 100 µM | 13.7 µM | 58.9 µM | 16.3 µM | 40.9 µM | 29.7 µM | > 100 µM | 26.2 µM | 92.3 µM | 13 µM | 28.6 µM | 18.4 µM | 52.6 µM | 19.2 µM | 46.9 µM | 15.8 µM | 32.4 µM | 4.14 µM | 14.8 µM
2 | O=C(O)c1ccc2c(c1)CCCC(c1ccc(Cl)cc1Cl)=C2c1ccc(O[C@H]2CCN(CCCF)C2)cc1 | 7.41 µM | 22.7 µM | 12.1 µM | 25.3 µM | 12.9 µM | 28 µM | 12 µM | 26.4 µM | 6.38 µM | 20.1 µM | 14.1 µM | 27.5 µM | 9.27 µM | 23.8 µM | 10.1 µM | 25.2 µM | 13.2 µM | 28.7 µM | 12.1 µM | 24.7 µM
3 | COc1cc2ncnc(Nc3ccc(F)c(Cl)c3)c2cc1NC(=O)/C=C/CN1CCCCC1 | 1.65 µM and 0.814 µM | 3.64 µM and 3.11 µM | 1.03 µM and 1.25 µM | 6 µM and 6.47 µM | 1.5 µM and 1.29 µM | 2.98 µM and 2.75 µM | 2.04 µM and 1.86 µM | 17 µM and > 10 µM | 1.07 µM and 1.12 µM | 4.6 µM and 3.81 µM | 1.63 µM and 1.56 µM | 3.08 µM and 3.03 µM | 2.18 µM and 2.4 µM | 6.22 µM and 7 µM | 1.46 µM and 1.87 µM | 3.26 µM and 4.27 µM | 1.72 µM and 1.61 µM | 3.4 µM and 3.26 µM | 1.14 µM and 1.21 µM | 2.45 µM and 3.24 µM
4 | OCCNc1ncnc2c1ncn2Cc1cccc(COc2cccc(OCc3cccc(Cn4cnc5c(NCCO)ncnc54)c3)c2)c1 | 10.6 µM | 29.3 µM | 12.3 µM | 27.4 µM | 15.5 µM | 30.3 µM | 15.4 µM | 30.4 µM | 30.9 µM | > 100 µM | 11.5 µM | 25.4 µM | 15.1 µM | 29 µM | 12.3 µM | 24.7 µM | 17.2 µM | 33.3 µM | 17.6 µM | 36.7 µM
5 | Cn1c2c(c3ccc(Cl)c(Cl)c31)C(C#N)C1(CCNCC1)NC2=O (stereo unspecified) | 1.96 µM | 3.91 µM | 1.14 µM | 4.72 µM | 1.66 µM | 3.36 µM | 3.1 µM | 13 µM | 2.4 µM | 7.88 µM | 2.03 µM | 6.34 µM | 1.71 µM | 3.79 µM | 2.94 µM | 10.7 µM | 1.54 µM | 3.3 µM | 1.42 µM | 2.9 µM
6 | Cc1sc2nc3c4ccccc4c(NCCCN(C)C)nn3c(=O)c2c1C | 9.98 µM | 25.8 µM | 3.46 µM | 16.4 µM | 9.14 µM | 21.9 µM | 15.9 µM | 29.5 µM | 6.73 µM | 20.8 µM | 1.65 µM | 3.04 µM | 1.08 µM | 5.35 µM | 6.66 µM | 20 µM | 1.77 µM | 3.22 µM | 11.3 µM | 24.3 µM
7 | O=c1cccc(C2CC(CO)C3CCCCN3C2)[nH]1 (stereo unspecified) | – | > 100 µM | – | > 100 µM | – | > 100 µM | – | > 100 µM | – | > 100 µM | – | > 100 µM | – | > 100 µM | – | > 100 µM | – | > 100 µM | – | > 100 µM
8 | CCN(CC)C(=S)SC | – | > 100 µM | – | > 100 µM | – | > 100 µM | – | > 100 µM | – | > 100 µM | – | > 100 µM | – | > 100 µM | – | > 100 µM | – | > 100 µM | – | > 100 µM
9 | C/C=C1\NC(=O)[C@H]2CSSCCC=C[C@H](CC(=O)N[C@H](C(C)C)C(=O)N2)OC(=O)[C@H](C(C)C)NC1=O | < 0.01 µM and 0.000299 µM | – | < 0.0104 µM | – | < 0.01 µM and 0.000554 µM | – | < 0.01 µM | 0.0301 µM and 0.0538 µM | 0.203 µM and 0.0551 µM | 3.75 µM and 1.59 µM | < 0.01 µM | 0.179 µM and 0.051 µM and 0.0469 µM | < 0.01 µM | – | < 0.01 µM and 0.000136 µM | < 0.01 µM and 0.00147 µM and < 0.0252 µM | < 0.01 µM | 0.263 µM and 0.0826 µM and 0.206 µM | < 0.01 µM | < 0.0108 µM and 0.00294 µM
10 | COc1cc(C(=O)Nc2cc3c(cc2Oc2cc(C)cc(C)c2)C(=O)N(C)[C@@H](CC(=O)N(C)O)C(=O)N3)c(Br)c(OC)c1OC | < 0.00333 µM | < 0.00333 µM | < 0.00333 µM | < 0.00333 µM | 0.00824 µM | 0.0429 µM | < 0.00333 µM | 0.00576 µM | 0.144 µM | 2.04 µM | < 0.00333 µM | < 0.00333 µM | < 0.00333 µM | 0.00425 µM | < 0.00333 µM | 0.00506 µM | < 0.00333 µM | 0.0101 µM | < 0.00333 µM | < 0.00333 µM
11 | COC(=O)C(CC(=O)Nc1ccc(C)cc1)C(=O)C(=O)Nc1ccccc1C(C)C (stereo unspecified) | – | > 100 µM | – | > 100 µM | – | > 100 µM | – | > 100 µM | – | > 100 µM | – | > 100 µM | – | > 100 µM | – | > 100 µM | – | > 100 µM | – | > 100 µM
12 | CCC[n+]1cc2cc(OC)c(OC)cc2c2c1-c1cc3c(cc1C2)OCO3 | 11 µM | > 54.1 µM | 0.843 µM | 4.52 µM | 1.11 µM | 12.3 µM | 0.254 µM | 1.68 µM | 46.9 µM | > 100 µM | 0.992 µM | 6.34 µM | 2.98 µM | 11.3 µM | 0.211 µM | 3.57 µM | 7.64 µM | 22 µM | 0.955 µM | 5.78 µM
13 | COc1ccc2[nH]c(O)c(C(=Nc3ccc(N(C)C(=O)CN4CCN(C)CC4)cc3)c3ccccc3)c2c1 | 0.88 µM | 2.86 µM | 1.07 µM | 2.64 µM | 1.9 µM | 5.52 µM | 3.72 µM | 10.7 µM | 2.65 µM | 12 µM | 1.04 µM | 2.27 µM | 2.83 µM | 11.1 µM | 1.84 µM | 5.27 µM | 1.26 µM | 2.89 µM | 2.9 µM | 7.31 µM
14 | C/C=C/C=C/C=C/C=C/C(=O)O | – | > 100 µM | – | > 100 µM | – | > 100 µM | – | > 100 µM | – | > 100 µM | – | > 100 µM | – | > 100 µM | – | > 100 µM | – | > 100 µM | – | > 100 µM
